This note sets out measurements from patent US20120004246A1, “PURINYL DERIVATIVES AND THEIR USE AS POTASSIUM CHANNEL MODULATORS” (NeuroSearch A/S, priority 2007, published 2012).

Each structure is given as a SMILES string.

For the experiment, the target named is T1, hSK3 channels (Homo sapiens, UniProt Q9UGI6).
T1 construct: expressed in transfected cells; host or cells: HEK293
As to the kind of experiment: whole-cell patch-clamp of SK3 current in HEK293 cells expressing hSK3 channels. The format is cell-based. The settings on record: SK3 activation. Here is the method: The ionic current through small-conductance Ca^2+-activated K^+ channels (SK channels, subtype 3) is recorded using the whole-cell configuration of the patch-clamp technique in a classic patch-clamp set-up using HEK293 tissue culture cells expressing hSK3 channels as described in e.g. WO 2006/100212.
The SC100 value determined is defined as the Stimulating Concentration required for increasing the baseline current by 100%. The below SC100 values are an indication of the SK3 activating properties of the compounds of the invention.
On the technique in general: In patch-clamp work, channel activity is measured electrically.

Consider `CCn1cnc2c(Nc3ccc(Cl)c(Cl)c3)nc(-n3nc(C)cc3C)nc21` [Compound 4.1, (3,4-Dichloro-phenyl)-[2-(3,5-dimethyl-pyrazol-1-yl)-9-ethyl-9H-purin-6-yl]-amine], for which the “SC100 (Stimulating Concentration required for increasing the baseline current by 100%)” value was found to be 0.04 µM. Take `Cc1cc(C)n(-c2nc(Nc3ccc(F)c(F)c3)c3ncn(C)c3n2)n1` [Compound 6.1, (3,4-Difluoro-phenyl)-(2-(3,5-dimethyl-pyrazol-1-yl)-9-methyl-9H-purin-6-yl)-amine]: the “SC100 (Stimulating Concentration required for increasing the baseline current by 100%)” value is 0.02 µM.
